According to US20180040391A1, “GAS-INSULATED MEDIUM-OR HIGH-VOLTAGE ELECTRICAL APPARATUS INCLUDING HEPTAFLUOROISOBUTYRONITRILE AND TETRAFLUOROMETHANE” (General Electric Technology GmbH, priority 2015, published 2018):
Read-outs that look alike come from different tables or passages of the source.

Legend:
[1] = fluids of WO 2012/080246; cited from earlier work
[2] = saturated vapor pressure of i-C3F7CN and corresponding pressure raised to 20° C.; assay type: physicochemical
Procedure: However, since equipment is usually filled with gas at ambient temperature, the pressure to which reference is made in order to fill the equipment with heptafluoroisobutyronitrile is the pressure PTfill that corresponds, at the filling temperature, e.g. 20° C., to the PVS presented by said compound at the lowest utilization temperature Tmin of said equipment. This correspondence is given, for each compound, by the formula: […]
with Tmin expressed in kelvins.
By way of example, the Table II below gives the saturated vapor pressures, referenced PVSi-C3F7CN and expressed in hectopascals, presented by heptafluoroisobutyronitrile at temperatures of 0° C., −5° C., −10° C., −15° C., −20° C., −25° C., −30° C., −35° C., and −40° C., as well as the pressures, referenced P and expressed in hectopascals, which correspond to those saturated vapor pressures raised to 20° C.

[3] = boiling point (ASTM D1120-94); assay type: physicochemical; details: at 1013 hPa
Procedure: (i) a boiling point of −4.7° C. at 1013 hectopascals (hPa) (boiling point measured in accordance with ASTM D1120-94 “Standard Test Method of Boiling Point of Engine Coolants”);
(i′) a boiling point of −127.8° C. at 1013 hPa (boiling point measured in accordance with ASTM D1120-94);

SMILES	boiling point [1] [°C]	PVSi-C3F7CN saturated vapor pressure ([2]; 0° C.) [hPa]	Pi-C3F7CN pressure corresponding to the saturated vapor pressure raised to 20° C. ([2]; PVS at 0° C. raised to 20° C.) [hPa]	Pi-C3F7CN pressure corresponding to the saturated vapor pressure raised to 20° C. ([2]; PVS at −5° C. raised to 20° C.) [hPa]	Pi-C3F7CN pressure corresponding to the saturated vapor pressure raised to 20° C. ([2]; PVS at −10° C. raised to 20° C.) [hPa]	Pi-C3F7CN pressure corresponding to the saturated vapor pressure raised to 20° C. ([2]; PVS at −15° C. raised to 20° C.) [hPa]	Pi-C3F7CN pressure corresponding to the saturated vapor pressure raised to 20° C. ([2]; PVS at −20° C. raised to 20° C.) [hPa]	Pi-C3F7CN pressure corresponding to the saturated vapor pressure raised to 20° C. ([2]; PVS at −25° C. raised to 20° C.) [hPa]	Pi-C3F7CN pressure corresponding to the saturated vapor pressure raised to 20° C. ([2]; PVS at −30° C. raised to 20° C.) [hPa]	Pi-C3F7CN pressure corresponding to the saturated vapor pressure raised to 20° C. ([2]; PVS at −35° C. raised to 20° C.) [hPa]	Pi-C3F7CN pressure corresponding to the saturated vapor pressure raised to 20° C. ([2]; PVS at −40° C. raised to 20° C.) [hPa]	PVSi-C3F7CN saturated vapor pressure ([2]; −5° C.) [hPa]	PVSi-C3F7CN saturated vapor pressure ([2]; −10° C.) [hPa]	PVSi-C3F7CN saturated vapor pressure ([2]; −15° C.) [hPa]	PVSi-C3F7CN saturated vapor pressure ([2]; −20° C.) [hPa]	PVSi-C3F7CN saturated vapor pressure ([2]; −25° C.) [hPa]	PVSi-C3F7CN saturated vapor pressure ([2]; −30° C.) [hPa]	PVSi-C3F7CN saturated vapor pressure ([2]; −35° C.) [hPa]	PVSi-C3F7CN saturated vapor pressure ([2]; −40° C.) [hPa]	boiling point [3] [°C]
O=C(C(F)(F)C(F)(F)F)C(F)(C(F)(F)F)C(F)(F)F [fluoroketone C6]	49	–	–	–	–	–	–	–	–	–	–	–	–	–	–	–	–	–	–	–
N#CC(F)(C(F)(F)F)C(F)(F)F [i-C3F7CN, 2,3,3,3-tetrafluoro-2-trifluoromethyl propanenitrile]	–	1177	1264	1058	877	720	583	466	368	286	218	968	788	634	504	395	305	232	173	−4.7
O=C(C(F)(F)F)C(F)(C(F)(F)F)C(F)(F)F [fluoroketone C5]	23	–	–	–	–	–	–	–	–	–	–	–	–	–	–	–	–	–	–	–
